In patent publication US20130244950A1, “COMBINATION THERAPY FOR CHEMORESISTANT CANCERS” (CELGENE CORPORATION, priority 2011, published 2013):
Where two headings read alike, the source gives them in different places.

Legend:
[1] = test system: ccRCC cell lines A498 and KIJ265T and TNBC cell lines MDA231 and BT20; assay: Drug treatments and proliferation assay (cell counting, Coulter Particle Counter); format: cell-based, Human
Procedure: Human renal cell carcinoma cell lines A498 (ATCC, Manassas, Va.) and KIJ265T (derived from primary tumor site stage 4 human renal cell carcinoma patient tissue established in the Copland laboratory), as well as triple negative breast cancer cell lines BT-20 (ATCC) and MDA-231 (ATCC) were maintained in phenol red free DMEM medium (Cellgro, Herndon, Va.) supplemented with 10% FBS (Hyclone, Logan, Utah) and penicillin-streptomycin (Invitrogen, Carlsbad, Calif.) at 37° C. in humidified conditions with 5% CO2.
DMSO was used for vehicle control. […] Cells were trypsinized 24 hours later and counted.

BT20 cell line = assay: Cell death analysis via flow cytometry (propidium iodide); format: cell-based, Human; conditions: 5 nM romidepsin and/or 1 μM decitabine, 72 hour treatment
[2] = cited from earlier work
KIJ265T ccRCC cell line = assay: Cell death analysis via flow cytometry (propidium iodide); format: cell-based, Human; conditions: 5 nM romidepsin and/or 1 μM decitabine, 72 hour treatment
Procedure: Cells were treated with the optimal combinatorial therapy and appropriate control groups were prepared. After 72 hour treatment both adhered and floating cells were collected, centrifuged at 4° C., and washed using DPBS. Cells were centrifuged and re-suspended in 1× cold binding buffer (BD Pharmingen, San Jose, Calif.) at a concentration of 1×10^6 cells per ml. Cells were stained for 10 minutes with propidium iodide (BD Pharmingen), and FACS analysis was performed using Accuri C6 flow cytometer (Accuri, Ann Arbor, Mich.). Unstained cells were used as controls for setting the cell population parameters.

[3] = test system: PARP cleavage in KIJ265T and MDA-231 parent cell lines; assay: PARP cleavage after recombinant human sFRP1; format: cell-based; conditions: single dose of 1.4 nM sFRP1
MDA231 and KIJ265T cells = assay: Proliferation of cells treated with recombinant human sFRP1; format: cell-based; conditions: escalating doses of recombinant sFRP1 in the media, 72 hours
Procedure: For the treatment of cells with recombinant human sFRP1, MDA231 and KIJ265T cells were seeded in a 96-well culture plate at 5000 cells per well in 100 μl DMEM supplemented with PSA and 10% FBS. After overnight incubation, cells were washed in PBS and 100 μl of serum free DMEM containing the final concentration of sFRP1 was added. The cells were incubated for 6 hours Serum was re-introduced to these wells to a final concentration of 2% FBS. Plates were incubated for 72 hours before cells were trypsinized and counted.

C/C=C1\NC(=O)[C@H]2CSSCC/C=C/[C@H](CC(=O)N[C@H](C(C)C)C(=O)N2)OC(=O)[C@H](C(C)C)NC1=O [romidepsin, (1S,4S,7Z,10S,16E,21R)-7-ethylidene-4,21-bis(1-methylethyl)-2-oxa-12,13-dithia-5,8,20,23-tetrazabicyclo[8.7.6]tricos-16-ene-3,6,9,19,22-pentone]
cell death in single treatment samples ([1]; 5 nM romidepsin, 3 day exposure): ~50%
inhibition of cell proliferation ([1]; romidepsin alone, 2.5-100 nM dose range, 72 hours post drug exposure): significant inhibition of cell proliferation
cell death induced compared to DMSO controls (BT20 cell line): 5.8%

Nc1ncn([C@@H]2O[C@H](CO)[C@@H](O)[C@H]2O)c(=O)n1 [azacitidine, 4-amino-1-β-D-ribofuranozyl-s-triazin-2(1H)-one]
solubility ([2]; acetone, ethanol and methyl ketone): insoluble
solubility ([2]; dimethylsulfoxide (DMSO)): soluble
solubility ([2]; ethanol/water (50/50), propylene glycol and polyethylene glycol): slightly soluble
solubility ([2]; water, water-saturated octanol, 5% dextrose in water, N-methyl-2-pyrrolidone, normal saline and 5% Tween 80 in water): sparingly soluble

Nc1ncn([C@H]2C[C@H](O)[C@@H](CO)O2)c(=O)n1 [decitabine, 4-amino-1-(2-deoxy-β-D-erythro-pentofuranosyl)-1,3,5-triazin-2(1H)one]
effect on cell proliferation ([1]; decitabine alone, all tested doses (0.01 μM to 10 μM), 72 hours post drug exposure): minimal effect on cell proliferation
solubility ([2]; dimethylsulfoxide (DMSO)): soluble
solubility ([2]; ethanol/water (50/50), methanol/water (50/50) and methanol): slightly soluble
solubility ([2]; water): sparingly soluble
cell death induced above DMSO treated controls (KIJ265T ccRCC cell line): 6.3%

B1: recombinant human sFRP1: recombinant human secreted frizzled related protein 1, negative regulator of Wnt signaling (protein, UniProt Q8N474 32-314, looked up)
Secreted frizzled-related …: SEYDYVSFQSDIGPYQSGRFYTKPPQCVDIPADLRLCHNVGYKKMVLPNLLEHETMAEVKQQASSWVPLLNKNCHAGTQVFLCSLFAPVCLDRPIYPCRWLCEAVRDSCEPVMQFFGFYWPEMLKCDKFPEGDVCIAMTPPNATEASKPQGTTVCPPCDNELKSEAIIEHLCASEFALRMKIKEVKKENGDKKIVPKKKKPLKLGPIKKKDLKKLVLYLKNGADCPCHQLDNLSHHFLIMGRKVKSQYLLTAIHKWDKKNKEFKNFMKKMKNHECPTFQSVFK
induction of apoptosis (PARP cleavage) [3]: induction of apoptosis as seen by PARP cleavage
cell proliferation (MDA231 and KIJ265T cells): dose-dependent decrease
